Measured values reported in patent US5270190A, “Method for producing (R)-malic acid from maleic acid using microbial maleate hydratase” (priority 1992, dated 1993).
Like-named read-outs stand apart in the source and are kept apart here. One block for each compound: values may come before it.

Assays:
maleate hydratase = assay: Induction of maleate hydratase by additions to the basal medium (specific activity of the cell sonicate supernatant); type: cell-based, Brevibacterium helvolum ATCC 11822; settings: for Specific Activity (amount of (R)-malic acid formed): crude enzyme reacted with maleate at 30° C. for 60 minutes, pH 7.2
Procedure: (§1) In order to obtain a culture containing a maleate hydratase activity by cultivating microorganism capable of producing this enzyme, usual cultivation methods can be used; namely cultivating in a nutrient medium containing organic compounds as a carbon source, organic and/or inorganic compounds as a nitrogen source, and mineral salts, at pH 4 to 10, at 10° to 40° C. It is preferred to add at least one compound selected from the group consisting of maleic acid and citraconic acid since a culture having high maleate hydratase activity can be obtained by the addition of such compound. The concentration of these compounds to be added in a medium is generally from about 0.1 to 3% by weight, preferably from about 0.5 to 2% by weight. The effect of these compounds is shown in Table 1 hereinbelow and Examples 1 and 2.
(§2) *Basal Medium: NH4 Cl 0.1%, KH2 PO4 0.14%, Na2
**Determined by the amount of (R)malic acid formed when reaction mixture
(total volume 2,000 μl, pH 7.2) containing 50 mM TrisHCl buffer (1,700
μl), 100 mM maleate (200 μl), and crude enzyme preparation (cells
sonicate supernatant, 100 μl) was reacted at 30° C. for 60

[1] = tested on: Brevibacterium helvolum ATCC 11822; assay: Growth in basal medium with additions; type: cell-based; settings: 1% addition to basal medium
Procedure: as §1, §2

[2] = tested on: microbial maleate hydratase; type: biochemical
[3] = tested on: microbial maleate hydratase; assay: Action and specificity of the enzyme (substrate); type: biochemical
Source text: The enzyme catalyzes a reaction in which maleic acid is hydrated to form (R)-malic acid.

- Induction Fold (maleate hydratase; 1% addition to basal medium, relative to no addition (1.0)): 4.8
SMILES: C/C(=C/C(=O)O)C(=O)O [Citraconic Acid, citraconic acid]
- Specific Activity (amount of (R)-malic acid formed) (maleate hydratase; 1% addition to basal medium): 3.13
- Growth at 68 Hours O.D. (660 nm) [1]: 4.1

SMILES: O=C(O)CN(CCN(CC(=O)O)CC(=O)O)CC(=O)O [EDTA]
- inhibition of enzyme activity [2]: no inhibition

SMILES: O=C(O)CI [IAA, iodoacetic acid]
- inhibition of enzyme activity [2]: 12%

- Induction Fold (maleate hydratase; 1 %): 3.9
SMILES: O=C(O)/C=C\C(=O)O [Maleic Acid, maleic acid]
- Specific Activity (amount of (R)-malic acid formed) (maleate hydratase; 1% addition to basal medium): 2.56
- Growth at 68 Hours O.D. (660 nm) [1]: 4.5

SMILES: CCN1C(=O)C=CC1=O [NEM, N-ethylmaleimide]
- inhibition of enzyme activity ([2]; inhibitor at 10 mM): 33%

SMILES: [Na+].[O-][I+3]([O-])([O-])[O-] [NaIO4, sodium metaperiodate]
- inhibition of enzyme activity ([2]; inhibitor concentration 1 mM): 17%

SMILES: O=C(O)c1cc[c]([Hg][Cl])cc1 [PCMB, p-chloromercuribenzoic acid]
- inhibition of enzyme activity ([2]; inhibitor concentration 1 mM): 100%

SMILES: O=S(=O)(F)Cc1ccccc1 [PMSF, phenylmethylsulfonylfluoride]
- inhibition of enzyme activity ([2]; inhibitor concentration 1 mM): no inhibition

- action of the enzyme on the substance as substrate [3]: does not act
SMILES: O=C(O)/C=C/C(=O)O [fumaric acid]
